Results taken from patent US20100184186A1, “NOVEL RIGIDOPORUS MICROPORUS LACCASE” (Academia Sinica, priority 2009, published 2010).

Columns and labels:
[1] = system: Lcc35; assay: Inhibitor effects on Lcc35 laccase activity; format: biochemical, R. microporus BCRC 35318; conditions: ABTS substrate; for Relative activity (%) of Lcc35: pre-incubation pH 5.0, 30° C., 10 min
Method: The inhibitory effects of NaN3, ethylenediaminetetraacetic acid (EDTA), dithiothreitol (DTT), and L-Cysteine on Lcc35 were examined as follows. Lcc35 was pre-incubated in a solution (pH 5.0) containing one of the test compounds at 30° C. for 10 min. The laccase activity was then examined using ABTS as the substrate.

[2] = system: R. microporus BCRC 35318; assay: Effects of inducers on laccase production in R. microporus; format: cell-based; conditions: for Yield of laccase production: inducer 1 mM in basal medium
Method: (§1) To isolate the laccase from R. microporus BCRC 35318, eight-day-old mycelial disks (8 mm in diameter) collected from the PDA plate mentioned above were inoculated into a basal medium containing (per liter) 10 g glucose, 0.22 g ammonium tartrate, 0.9 g K2HPO4, 0.1 g KH2PO4, 0.05 g MgSO4.7H2O, 0.5 g CaCl2, 0.01 g Thiamine HCl, and 10 ml solution (0.08 g CuSO4.5H2O, 0.07 g MnSO4.4H2O, 4.3 g ZnSO4.7H2O and 0.05 g FeSO4.7H2O per liter). The pH of the medium was adjusted to 5.5. After being cultured for 10 days at 30° C. in a rotary shaker with a speed setting of 125 rpm, the supernatant of the fungal culture thus obtained was collected and passed through a […] filter (Nalgene) to remove fungal cells. The filtrate was mixed with 100% ammonium sulfate for protein precipitation. The precipitated proteins were dissolved in 40 ml of a 10 mM sodium acetate buffer (pH 6.0) and the resultant solution was dialyzed against the same acetate buffer overnight to remove co-precipitated ammonium sulfate and then concentrated to 4 ml by ultracentrifugal filteration with a molecular cutoff of 10 kDa (Amicon).
R. microporus BCRC 35318 cells were cultured in the basal medium described in Example 1 above, which was supplemented with veratryl alcohol, 4-hydroxybenxoic acid, ferulic acid, or rice straw powder. Lcc35 were isolated from the culture supernatants following the method also described above and its activity was determined.

[3] = system: Rigidoporus microporus BCRC 35318 laccase Lcc35, native (wild type), mature form SEQ ID NO:1; assay: Kinetic constants of Lcc35 for digesting ABTS and SGZ (initial reaction rates at various substrate concentrations); format: biochemical, R. microporus BCRC 35318
Method: The pH of the medium was adjusted to 5.5. After being cultured for 10 days at 30° C. in a rotary shaker with a speed setting of 125 rpm, the supernatant of the fungal culture thus obtained was collected and passed through a […] filter (Nalgene) to remove fungal cells. […] The precipitated proteins were dissolved in 40 ml of a 10 mM sodium acetate buffer (pH 6.0) and the resultant solution was dialyzed against the same acetate buffer overnight to remove co-precipitated ammonium sulfate and then concentrated to 4 ml by ultracentrifugal filteration with a molecular cutoff of 10 kDa (Amicon). Next, the laccase activities of Lcc35 under various pH conditions were determined, following the method described in Lu et al., Appl. Microbiol. […] After being incubated at 30° C. for 1 min (when ABST or SGZ was the substrate) or for 4 hours (when RBBR was the substrate), each of the reaction mixtures was examined with a spectrophotometer to determine its optical density at 420 nm (when ABST was the substrate), at 530 nm (when SGZ was the substrate), or at 585 nm (when RBBR was the substrate). […] Kinetic constants of Lcc35 for digesting ABTS and SGZ were determined based on the initial reaction rates of Lcc35 at various substrate concentrations. The enzymatic reactions were taken place at pH 5 (for ABST) or pH 6 (for SGH) and 70° C.

[4] = system: Rigidoporus microporus BCRC 35318 laccase Lcc35, native (wild type), mature form SEQ ID NO:1; assay: Inhibitor effects on Lcc35 laccase activity (ABTS as the substrate); format: biochemical, R. microporus BCRC 35318; conditions: 10 min; for Relative activity (residual laccase activity with inhibitor; None = 100.0): pre-incubated pH 5.0, 30° C.
Method: as §1
Next, the laccase activities of Lcc35 under various pH conditions were determined, following the method described in Lu et al., Appl. Microbiol. Biotechnol., 2007, 74, (6), 1232-1239. 0.01 ml of the Lcc35-containing solution was mixed with (i) 0.49 ml of a 50 mM reaction buffer of glycine-HCl (pH 2.0 to 3.0), sodium acetate (pH 4.0 to 6.0), or sodium phosphate (pH 7.0 to 8.0) and (ii) 0.5 ml of a substrate solution containing 2 mM ABTS, 1 mM [N,N′-bis(3,5-dimethoxy-4-hydroxybenzylidene)hydrazine] (SGZ), or 0.04% RBBR. After being incubated at 30° C. for 1 min (when ABST or SGZ was the substrate) or for 4 hours (when RBBR was the substrate), each of the reaction mixtures was examined with a spectrophotometer to determine its optical density at 420 nm (when ABST was the substrate), at 530 nm (when SGZ was the substrate), or at 585 nm (when RBBR was the substrate). One unit of laccase activity was defined as the amount of Lcc35 that oxidized 1 μmol substrate per min. […]

[5] = ABTS overlay activity assay on basic-native PAGE gel; format: biochemical; conditions: ABTS reaction buffer 1 mM, pH 3, room temperature
Method: The laccase activity of this 55kDa protein was determined by an [2,2-azinobis(3-ethylbenzathiazoline-6-sulfonic acid)] (ABTS) overlay activity assay. See Lebendiker M BASIC-NATIVE GEL Protocol, wolfson.huji.ac.il/purification/Protocols/PAGE_Basic.html. A basic-native PAGE gel containing the 55 kDa protein was incubated in an ABTS reaction buffer (1 mM, pH 3) at room temperature.

[6] = Isoelectric focusing with PhastGel IEF 3-9; format: physicochemical
Method: First, the isoelectric focusing point of Lcc35 was determined with PhastGel IEF 3-9 (GE Healthcare), following the method described in Hackler et al., Anal. Biochem. 1995, 230, (2), 281-289. Briefly, the Lcc35-containing solution mentioned above was loaded on a PhastGel IEF 3-9 gel.

[7] = Laccase activity under various pH conditions, ABTS substrate; format: biochemical; conditions: 30° C., 1 min
Method: (§2) Next, the laccase activities of Lcc35 under various pH conditions were determined, following the method described in Lu et al., Appl. Microbiol. Biotechnol., 2007, 74, (6), 1232-1239. 0.01 ml of the Lcc35-containing solution was mixed with (i) 0.49 ml of a 50 mM reaction buffer of glycine-HCl (pH 2.0 to 3.0), sodium acetate (pH 4.0 to 6.0), or sodium phosphate (pH 7.0 to 8.0) and (ii) 0.5 ml of a substrate solution containing 2 mM ABTS, 1 mM [N,N′-bis(3,5-dimethoxy-4-hydroxybenzylidene)hydrazine] (SGZ), or 0.04% RBBR. After being incubated at 30° C. for 1 min (when ABST or SGZ was the substrate) or for 4 hours (when RBBR was the substrate), each of the reaction mixtures was examined with a spectrophotometer to determine its optical density at 420 nm (when ABST was the substrate), at 530 nm (when SGZ was the substrate), or at 585 nm (when RBBR was the substrate). One unit of laccase activity was defined as the amount of Lcc35 that oxidized 1 μmol substrate per min.

[8] = Laccase activity under various pH conditions, SGZ substrate; format: biochemical; conditions: 30° C., 1 min
Method: as §2

[9] = Laccase activity under various pH conditions, RBBR de-colorization; format: biochemical; conditions: RBBR substrate, 30° C., 4 hours
Method: as §2

[10] = Optimal pH with artificial lignin on agar micro-titer plate; format: biochemical; conditions: 0.1% lignin substrate, 30° C., 4 hr
Method: The optimal pH of Lcc35 was also examined using an artificial lignin as a substrate, as follows. Each of the reaction buffers listed above was mixed with 0.1% lignin (Sigma #471003) and the mixture was placed in wells of an agar micro-titter plate. 10 μl of the Lcc35-containing suspension was placed at the center of each well. The agar plate was incubated at 30° C. for 4 hr to allow degradation of the artificial lignin by Lcc35.

[11] = pH stability of Lcc35; format: physicochemical; conditions: incubated at 30° C. for 20 hours, ABTS substrate
Method: The Lcc35 solution was incubated under various pH conditions at 30° C. 20 hours later, the laccase activity in the solution was determined, using ABST as the substrate.

[12] = Laccase activity at various temperatures; format: biochemical; conditions: ABTS substrate, sodium acetate buffer pH 5.0, 1 minute, 25-90° C.
Method: The laccase activity of Lcc35 was determined at various temperatures (i.e., ranging from 25-90° C.), using ABST as the substrate. The Lcc35-containing solution was incubated with ABST and a sodium acetate buffer (pH 5.0) for 1 minute and the enzymatic activity was examined afterwards.

[13] = Thermal stability of Lcc35; format: physicochemical; conditions: pH 6.0, 30-70° C. for 10, 30 or 60 minutes
Method: To determine thermal stability of Lcc35, the enzyme solution was incubated under pH 6.0 at various temperatures (i.e., 30° C., 40° C., 50° C., 60° C., and 70° C.) for 10, 30, or 60 minutes.

[14] = Activity comparison with T. versicolor laccase, ABTS assay; format: biochemical
Method: as §2
(§3) The laccase activity of Lcc35 was compared with Trametes versicolor laccase (provided by Fluka Co.), using either ABST or SGZ as the substrate according to the methods described above.

[15] = Activity comparison with T. versicolor laccase, SGZ assay; format: biochemical; conditions: SGZ substrate; laccase amount by SDS-PAGE and ImageQuant TL 7.0
Method: as §2, §3

[16] = Enzymatic activity of purified Lcc35; format: biochemical; conditions: isolated as in Example 1; culture with 1 mM 4-hydroxybenzoic acid
Method: as §1
See Cambria et al., Protein Expr. Purif. 2000, 18, (2), 141-147; and Liu et al., Appl. Microbiol. Biotechnol. 2003, 63, (2), 174-181. Following the isolation process described in Example 1 above, purified Lcc35 was obtained with a recovery rate of about 55% and an enzymatic activity of 289.8 U/ml.

[17] = substrate ABTS, pH 5, 70° C., 420 nm
[18] = substrate SGZ, pH 6, 70° C., 530 nm

Molecule: O=C(O)CN(CCN(CC(=O)O)CC(=O)O)CC(=O)O [EDTA, ethylenediaminetetraacetic acid]
- Relative activity (%) of Lcc35 ([1]; compound 10.0 mM): 100.0%
- Relative activity (%) of Lcc35 ([1]; compound 25.0 mM): 100.0%

Molecule: COc1ccc(CO)cc1OC [Veratryl alcohol, veratryl alcohol]
- Yield of laccase production [2]: 3.4 Unit ml^−1

Molecule: O[C@H](CS)[C@H](O)CS (racemic) [DTT, dithiothreitol]
- Relative activity (%) of Lcc35 ([1]; compound 0.1 mM): 92.3%
- Relative activity (%) of Lcc35 ([1]; compound 1.0 mM): 91.8%

Molecule: O=C(O)c1ccc(O)cc1 [4-Hydroxybenzoic acid, 4-hydroxybenzoic acid]
- Yield of laccase production [2]: 10.5 Unit ml^−1
- increase of Lcc35 production ([2]; versus no inducer): 10.5 fold

Molecule: CCn1c(=NN=c2sc3cc(S(=O)(=O)O)ccc3n2CC)sc2cc(S(=O)(=O)O)ccc21 [ABTS, 2,2-azinobis(3-ethylbenzathiazoline-6-sulfonic acid)]
- Kcat [3, 17]: 730 s⁻¹
- Km [3, 17]: 53 µM

Molecule: [N-]=[N+]=[N-].[Na+] [NaN3]
- Relative activity (residual laccase activity with inhibitor; None = 100.0) ([4]; 0.1 mM compound): 50.0%
- Relative activity (residual laccase activity with inhibitor; None = 100.0) ([4]; 1.0 mM compound): 17.0%
- inhibitory effect on Lcc35 (in words) ([4]; concentrations of Table 2, pH 5.0, 30° C.): substantially inhibited
- inhibitory effect on Lcc35 activity (in words) [1]: substantially inhibited
- Relative activity (%) of Lcc35 ([1]; compound 0.1 mM): 50.0%
- Relative activity (%) of Lcc35 ([1]; compound 1.0 mM): 17.0%

Molecule: N[C@@H](CS)C(=O)O [L-Cysteine]
- Relative activity (%) of Lcc35 ([1]; compound 0.1 mM): 97.2%
- Relative activity (%) of Lcc35 ([1]; compound 1.0 mM): 92.7%

Molecule: COc1cc(/C=N/N=C/c2cc(OC)c(O)c(OC)c2)cc(OC)c1O [SGZ, N,N′-bis(3,5-dimethoxy-4-hydroxybenzylidene)hydrazine]
- Kcat [3, 18]: 750 s⁻¹
- Km [3, 18]: 7 µM

Molecule: COc1cc(/C=C/C(=O)O)ccc1O [Ferulic acid, ferulic acid]
- Yield of laccase production [2]: 2.4 Unit ml^−1

B1: Lcc35: novel laccase isolated from R. microporus BCRC 35318; mature form SEQ ID NO:1, precursor SEQ ID NO:2 (protein)
chain: SVGPVADIPIVNANLSPDGFTRTTVLAGGTFPGPLIVGNKGDNFKLNVVDQLTDANQLKTTTIHWHGFFQHGTNWADGPAFVNQCPIASGNSFLYDFSAADQAGTFWYHSHLSTQYCDGLRGAFVVYDPSDPNASLYDVDNESTVITLADWYHTLARLGARFPTPDSTLINGLGRFAGGPASDLSVITVESGKRYRFRLVSISCDPNYTFSIDGHDMTIIEVNGINHDALSVDSIQIFAGQRYSFVLNANQAVGNYWIRANPNIGTRGFSGGINSAILRYVGADAVEPTTSQGTSTKPLVETNLHPSQNPGAVGSPTPGGVDLALNLALGFAGGSFTINGATFTSPTVPVLLQILSGAQSATDLLPSGSVFTLPGDSTIEISMPAGVAGGPHPFHLHGHAFDVVRASGSSTYNYANPVRRDVVSLGAAGDNVTIRFKTDNPGPWFLHCHIDWHLEAGLAIVFAEDTPNTAAINPVPQAWSDLCPIYNALAESDH
modifications: RIGIDOPORUS MICROPORUS
- laccase activity (color change around the 55 kDa band) [5]: high laccase activity
- pI value [6]: 3.98
- pH of highest laccase activity [7]: 3-5
- pH of highest laccase activity [8]: 5-6
- pH of highest laccase activity [9]: 5-6
- pH of highest laccase activity [10]: 5-6
- pH at which Lcc35 was more stable [11]: 6
- temperature of highest laccase activity [12]: 70 °C
- temperature below which Lcc35 was stable [13]: below 50 °C
- laccase-specific activity relative to T. versicolor laccase ([14]; ABTS or SGZ as the substrate): 2-3 fold
- ABTS assay, laccase-specific activity ([14]; ABTS substrate, laccase amount by SDS-PAGE and ImageQuant TL 7.0): 3800 U mg^−1
- SGZ assay, laccase-specific activity [15]: 1700 U mg^−1
- enzymatic activity of purified Lcc35 [16]: 289.8 U/ml
